Measured values taken from PMC8900595 (Journal of medicinal chemistry, 2021).

System: H1N1 A/WSN/1933 virus
Type: cell-based, influenza A virus

`CCN(c1ccccc1C)S(=O)(=O)c1cc(Cl)ccc1Cl` [compound 1, 2,5-dichloro-N-ethyl-N-(o-tolyl)-benzenesulfonamide] was tested, and the “concentration required for maximum virus inhibition (three logs) while maintaining enough virus production for passages” value was 0.5 μM.
